Reference: patent US20240226155A1, “Methods and Products for Reducing HIV Reservoirs” (The Regents of the University of California, priority 2023, published 2024)
“Also recorded” adds a separate entry of the source.

Key:
barcoded HIV NL-HABC = experiment: Kick and kill: SUW133 and NK cells in NL-HABC-infected mice on ART, then ART interruption; format: in vivo, TKO-BLT mice
Experimental: To determine whether combining a robust LRA with NK cells would effectively diminish the viral reservoir, as NK cells might eliminate cells induced to express virus due to the LRA activity, the following was performed. BLT mice were infected with NL-HABC, followed by ART to halt productive infection (FIG. 21, FIG. 64). Once mice were suppressed on ART, a subset of mice received a single intraperitoneal injection of 2 μg of SUW133 per mouse to reverse latency, followed by an intravenous injection of 5×10^6 allogeneic human NK cells eight hours later. Reactivation and killing of activated infected cells was allowed to occur while the mice were maintained on ART. ART was then discontinued, and mice were concurrently administered one more intravenous injection of 5×10^6 NK cells. A subset of control mice received SUW133, but no NK cell injections. All remaining control mice received DMSO as a vehicle control instead of SUW133. A subset of the mice receiving DMSO also received NK cell injections. Plasma viral loads were monitored after ART interruption for 12.1 weeks (FIG. 22). In these experiments, TKO-BLT mice, which can be robustly infected with HIV and are less susceptible to GVHD compared to NSG-BLT, were used and allowed monitoring the mice after ART interruption for a longer interval.
RNA was extracted from the barcoded virus supernatant using QIAamp Viral RNA Mini Kit (Qiagen) and from cells using RNeasy MiniKit (Qiagen). cDNA was generated using SuperScript IV First-Strand Synthesis Kit (Invitrogen). The same amount of input RNA that was used for viral load measurement was also used for cDNA synthesis for barcode analysis. The barcode region was amplified by hemi-nested PCR using Phusion High-Fidelity DNA Polymerase (ThermoFisher Scientific). Each RNA molecule was tagged with a Primer ID using methods in the art. Primer ID removal and cDNA purification was performed using an Purelink Quick PCR Purification Kit (Invitrogen) and methods in the art. […] Deep sequencing was performed with Illumina HiSeq3000 PE150. Sequencing depth was 10-fold higher than viral genome copies. Raw sequencing reads were de-multiplexed using the six-nucleotide ID. Sequencing error within the barcode region was corrected by filtering out low quality reads (quality score<30) and un-matched base-pairs between forward and reverse reads. PrimerIDs were used to correct sequencing errors. The frequency of Primer ID reads followed a bi-modal distribution (FIG. 53). The Primer IDs were filtered using the frequency cutoff between the Poisson distribution of errors and normal distribution of real Primer IDs. For each Primer ID, the most frequently observed barcode was called. Similar barcodes were then grouped into clusters. […]

HIV = settings: cited from earlier work

With `C=C1C[C@H]2C[C@]3(O)O[C@H](C[C@@H](O)CC(=O)O[C@@H](CO)C[C@@H]4C/C(=C\C(=O)OC)[C@H](OC(=O)CCCCCCC)[C@@](O)(O4)C(C)(C)/C=C/[C@@H](C1)O2)C[C@H](OC(C)=O)C3(C)C` [SUW133] as the compound, how does the “delay to rebound after ART interruption (Kaplan-Meier, log-rank)” value (barcoded HIV NL-HABC; combination vs other groups (P=0.012 vs DMSO, 0.0037 vs SUW133, 0.09 vs NK), single agents vs DMSO (P=0.59, 0.47)) read?
The value was “did not demonstrate a significant delay in rebound”.

What about the “mean unique barcodes per mouse” value (barcoded HIV NL-HABC; deep sequencing of rebounding viral RNA, DMSO alone 4.7) of the same compound?
Its value is 4.1.

And the “CD69 expression on peripheral CD4+ T cells in the blood” value (barcoded HIV NL-HABC; five days after administration of SUW133)?
Its value is “significant increase; also recorded: significantly elevated”.

What about the “rebound viremia during the lengthened interval of ART interruption” value (barcoded HIV NL-HABC; monitored about 12 weeks) of the same compound?
The value was “eventually rebound; also recorded: rebounded”.

And the “replication-competent virus from splenocytes in ex vivo cultures” value (HIV; SUW133-treated mice, prior studies)?
The value was “generated replication-competent virus”.

And the “delay of rebound viremia after ART interruption” value (HIV; SUW133 alone, prior studies)?
Its value is “up to two to four weeks”.

What about the “time of maximal CD69 expression on CD4+ T cells in vivo” value (HIV; post-SUW133 injection, previous report) of the same compound?
Its value is “approximately one to two days”.

What about the “time CD69 can be detected on CD4+ T cells in vivo” value (HIV; post-injection, previous report) of the same compound?
The value was “up to nine days”.

What about the “CD4+ T cell activation and latency reversal in vivo” value (HIV; single administration) of the same compound?
The value was “activated CD4^+ T cells and reversed latency in vivo”.
